From patent US6777412B2 (priority 1990, dated 2004)
Where two headings read alike, the source gives them in different places. Marks after values point to notes of the source that are not given here.

Key:
Assay type in all cases: in vivo
Puccinia recondita = assay: Foliar fungal disease test on plants: Puccinia recondita (Pr)
Experimental: (§1) The compounds were tested against a variety of foliar fungal diseases of plants. The technique employed was as follows.
(§2) The plants were grown in John Innes Potting Compost (No.1 or 2) in 4 cm diameter minipots. The test compounds were formulated either by bead milling with aqueous Dispersol T or as a solution in acetone or acetone/ethanol which was diluted to the required concentration immediately before use. For the foliage diseases, the formulations (100 ppm active ingredient except where otherwise indicated) were sprayed onto the foliage and applied to the roots of the plants in the soil. The sprays were applied to maximum retention and the root drenches to a final concentration equivalent to approximately 40 ppm a.i. in dry soil. Tween 20, to give a final concentration of 0.05%, was added when the sprays were applied to cereals.
(§3) For most of the tests the compound was applied to the soil (roots) and to the foliage (by spraying) one or two days before the plant was inoculated with the disease. An exception was the test on Erysiphe graminis in which the plants were inoculated 24 hours before treatment. Foliar pathogens were applied by spray as spore suspensions onto the leaves of test plants. After inoculation, the plants were put into an appropriate environment to allow infection to proceed and then incubated until the disease was ready for assessment. The period between inoculation and assessment varied from four to fourteen days according to the disease and environment.
(§4) The disease control vas recorded by the following grading:
(§5) 3=trace-5% of disease on untreated plants
(§6) 2=6-25% of disease on untreated plants
(§7) 1=26-59% of disease on untreated plants
(§8) 0=60-100% of disease on untreated plants

Erysiphe graminis hordei = assay: Foliar fungal disease test on plants: Erysiphe graminis hordei (Egh)
Experimental: as §1, §2, §3, §4, §5, §6, §7, §8
Egh Erysiphe graminis hordei

Pyricularia oryzae = system: Pyricularia oryzae
Venturia inaequalis = assay: Foliar fungal disease test on plants: Venturia inaequalis (Vi)
Experimental: as §1, §2, §3, §4, §5, §6, §7, §8

Plasmopara viticola = assay: Foliar fungal disease test on plants: Plasmopara viticola (Pv)
Experimental: as §1, §2, §3, §4, §5, §6, §7, §8

[1] = system: Phytophthora infestans lycopersici
[2] = 100 ppm active ingredient foliar spray plus root drench (approx. 40 ppm a.i. in dry soil), one or two days before inoculation
[3] = 100 ppm active ingredient foliar spray plus root drench (approx. 40 ppm a.i. in dry soil), plants inoculated 24 hours before treatment

SMILES	disease control grading, Pr (Puccinia recondita) (Puccinia recondita; [2])	disease control grading, Egh (Erysiphe graminis hordei) (Erysiphe graminis hordei; [3])	disease control grading, Po (Pyricularia oryzae) (Pyricularia oryzae; [2])	disease control grading, Vi (Venturia inaegualis) (Venturia inaequalis; [2])	disease control grading, Pv (Plasmopara viticola) (Plasmopara viticola; [2])	disease control grading, Pil (Phytophthora infestans lycopersici) [1, 2]	disease control grading, Pr (Puccinia recondita) (Puccinia recondita; 10 ppm foliar application only)	disease control grading, Egh (Erysiphe graminis hordei) (Erysiphe graminis hordei; 10 ppm foliar application only)	disease control grading, Po (Pyricularia oryzae) (Pyricularia oryzae; 10 ppm foliar application only)	disease control grading, Vi (Venturia inaegualis) (Venturia inaequalis; 10 ppm foliar application only)	disease control grading, Pv (Plasmopara viticola) (Plasmopara viticola; 10 ppm foliar application only)	disease control grading, Pil (Phytophthora infestans lycopersici) ([1]; 10 ppm foliar application only)
CO/C=C(/C(=O)OC)c1ccccc1Oc1cc(OCCc2ccccc2OC)ncn1 [365 of Table I]	4 (4=no disease)	4 (4=no disease)	4 (4=no disease)	4 (4=no disease)	4 (4=no disease)	4 (4=no disease)						
CO/C=C(/C(=O)OC)c1ccccc1Oc1cc(NC(=S)c2ccccc2O)ncn1 [367 of Table I]							4^a (4=no disease)	3^a (3=trace-5% of disease on untreated plants)	0^a (0=60-100% of disease on untreated plants)	2^a (2=6-25% of disease on untreated plants)	4^a (4=no disease)	0^a (0=60-100% of disease on untreated plants)
CO/C=C(/C(=O)OC)c1ccccc1Oc1cc(OCCc2ccccc2C(F)(F)F)ncn1 [363 of Table I]	4 (4=no disease)	4 (4=no disease)	4 (4=no disease)	4 (4=no disease)	4 (4=no disease)	4 (4=no disease)						
CO/C=C(/C(=O)OC)c1ccccc1Oc1cc([S+]([O-])c2ccccc2)ncn1 (stereo not shown) [2 of Table I]							0^a (0=60-100% of disease on untreated plants)	0^a (0=60-100% of disease on untreated plants)	0^a (0=60-100% of disease on untreated plants)	0^a (0=60-100% of disease on untreated plants)	4^a (4=no disease)	0^a (0=60-100% of disease on untreated plants)
CO/C=C(/C(=O)OC)c1ccccc1Oc1cc([S+]([O-])c2ccccn2)ncn1 (stereo not shown) [355 of Table I]	0 (0=60-100% of disease on untreated plants)	4 (4=no disease)		4 (4=no disease)	0 (0=60-100% of disease on untreated plants)	0 (0=60-100% of disease on untreated plants)						
CO/C=C(/C(=O)OC)c1ccccc1Oc1cc(Nc2ccccc2O)ncn1 [379 of Table I]	3 (3=trace-5% of disease on untreated plants)	0 (0=60-100% of disease on untreated plants)	0 (0=60-100% of disease on untreated plants)		4 (4=no disease)	0 (0=60-100% of disease on untreated plants)						
CO/C=C(/C(=O)OC)c1ccccc1Oc1cc(Sc2ccccc2C#N)ncn1 [134 of Table I]	4 (4=no disease)	4 (4=no disease)	2 (2=6-25% of disease on untreated plants)		4 (4=no disease)							
CO/C=C(/C(=O)OC)c1ccccc1Oc1cc(OCCc2ccccc2)ncn1 [96 of Table I]	4 (4=no disease)	4 (4=no disease)	3 (3=trace-5% of disease on untreated plants)		4 (4=no disease)	4 (4=no disease)						
